Source: publication PMC3751085, “A simple methodology to assess endolysosomal protease activity involved in antigen processing in human primary cells” (BMC Cell Biology, 2013)
Read-outs that look alike come from different tables or passages of the source.

Assays:
[1] = not given; remark: listed apart in the source
[2] = human, cells or culture medium
Source text: The percentage of acid phosphatase activity in each fraction was used to determine the number of cells that yielded endolysosomes in each fraction. […] The disappearance of the peptide was monitored by RP-HPLC, where the amount of peptide is proportional to the surface area under its peak. Upon degradation the peak area reduced and additional peaks corresponding to degradation products appeared [15].
(§1) We performed a degradation assay as mentioned in Figure 1 and analyzed the peptide fragments produced by mass spectrometry. We compared the degradation of a longer HIV peptide relevant to antigen processing and peptide-based immunogens with crude lysate and purified endolysosomes at pH 5.5 (late endosomal pH) and 4.0 (lysosomal pH) [26]. […] The products of the degradation after a 60-minute incubation with either crude lysate or purified endolysosomes at pH 4.0 and 5.5 were identified by mass spectrometry. […] We compared by mass spectrometry the identity and corresponding peak sirface intensities of all peptides produced in purified endolysosomes and in crude lysate at pH 4 and 5.5 (Additional file 3: Figure S3A).
(§2) Endolysosomes were purified from crude PBMC lysate by differential centrifugation. PBMCs were isolated from human buffy coats using Ficoll centrifugation [29]. Cells resuspended in extraction buffer at a concentration of 5 × 10^8 cells/ml [30] were lysed using glass beads as in a previous study done in our laboratory [31]. The cell lysate was centrifuged at 1000g for 10 min at 4°C. The supernatant was transferred to a new tube and centrifuged at 20,000 g for 20 min at 4°C. The resulting pellet consists of endoplasmic reticulum, mitochondria and endolysosomes. The supernatant corresponds to purified cytosolic fraction. […] 120 μl fractions were collected and further analyzed for endolysosomal enrichment.
The assay is adapted from previously published studies from our laboratory [31]. […] Another 50 μl of the degradation buffer was added to each sample and the amount of peptide remaining was analyzed by RP-HPLC.

[3] = Peptide degradation assay in purified cytosol from PBMC; type: in vitro ADME; settings: human, s9, amount equivalent to endolysosomes (same number of cells), 8 nM peptide in degradation buffer (20 mM HEPES, 1 mM MgCl2, 137 mM K acetate, 1 mM ATP), 37°C, % original peptide remaining by RP-HPLC, representative of two replicates
Source text: The percentage of acid phosphatase activity in each fraction was used to determine the number of cells that yielded endolysosomes in each fraction. […] The disappearance of the peptide was monitored by RP-HPLC, where the amount of peptide is proportional to the surface area under its peak.
as §2
In studies involving purified endolysosome, an acid phosphatase assay was performed on the fractions and the amount of acid phosphatase activity was used to calculate the total number of cells from which each fraction was derived. […] Another 50 μl of the degradation buffer was added to each sample and the amount of peptide remaining was analyzed by RP-HPLC.

in vitro = settings: human, cells or culture medium, pH 4
Procedure: These degradation assays were performed in the presence of cathepsin inhibitors to identify specific cathepsins that played a role in antigen processing. […] The products of peptide degradation after 0, 10, 30 and 60 minutes of the reaction were analyzed by RP-HPLC and the percentage of remaining original peptide was quantified from the area under peak (Figure 3A). To rule out any effect of acidic pH on the peptides, the peptide was incubated for the same amount of time with the reaction buffer without any crude lysate and the peptide was quantified by RP-HPLC (Figure 3B). As mentioned in Figure 1D, a half-life of the peptide in the presence or absence of cathepsin can be calculated. […] Therefore, on fitting a one-phase exponential decay curve, we calculated the stability rate of the peptide at each pH (Figure 3C). […] The stability rate of the peptide without inhibitor was assigned a value of one and the fold change in the stability rate in the presence of inhibitors was calculated. […] The experiment was repeated using PBMC lysate from three different healthy donors and the average of three results are shown in Figure 3C.
as §1
8 nM of peptide was incubated with 30 μg of crude PBMC lysate in 250 μl of degradation buffer (20 mM HEPES, 1 mM magnesium chloride, 137 mM potassium acetate, 1 mM ATP) that was adjusted to the appropriate pH. In studies involving purified endolysosome, an acid phosphatase assay was performed on the fractions and the amount of acid phosphatase activity was used to calculate the total number of cells from which each fraction was derived. Using this approach, equivalent amount of cytosol and endolysosome that were derived from the same number of cells were used in peptide degradation assays. […] When using inhibitors, the compound was added to the crude lysate before addition of the peptide and incubated at room temperature for 30 minutes. […] Another 50 μl of the degradation buffer was added to each sample and the amount of peptide remaining was analyzed by RP-HPLC. […]

| Molecule | number of peptide fragments identified after degradation in endolysosomes (pH 4) [peptides] | fragments of the crude lysate degradation similar to those produced in endolysosomes, pH 4.0 ([1]; pH 4) [%] | number of peptide fragments identified after degradation in crude lysate ([1]; pH 4) [peptides] | fragments of the crude lysate degradation similar to the endolysosomal fraction, pH 5.5 ([1]; pH 5.5) [%] | half-life [2] [min] | half-life at 8 nM [3] [min] | half-life of the peptide in endolysosomes at pH 4.0 (purified endolysosomes, pH 4.0, 37°C, RP-HPLC, data not shown) [min] | half-life (in vitro) [min] |
| --- | --- | --- | --- | --- | --- | --- | --- | --- |
| KVVEEKAFSPEVIPMFAAL [5-KF11-3] | 39 | 84.75 | 32 | 76.2 | – | – | – | – |
| CC[C@H](C)[C@H](NC(=O)[C@@H](NC(=O)[C@H](CCC(=O)O)NC(=O)[C@@H]1CCCN1C(=O)[C@H](CO)NC(=O)[C@H](Cc1ccccc1)NC(=O)[C@H](C)NC(=O)[C@@H](N)CCCCN)C(C)C)C(=O)N1CCC[C@H]1C(=O)N[C@@H](CCSC)C(=O)N[C@@H](Cc1ccccc1)C(=O)O [B57KF11] | – | – | – | – | 8 | 36 | 8 | 6 |
